Measured values: US10131652B2, “Pyrimidinyloxy benzene derivatives as herbicides” (E. I. DU PONT DE NEMOURS AND COMPANY, priority 2014, dated 2018)

What was measured:
Type in all cases: in vivo
[1] = test system: barnyardgrass (Echinochloa crus-galli); experiment: Test B pre-/postemergence plant response
Source text: (§1) Seeds of plant species selected from bamyardgrass (Echinochloa crus-galli), kochia (Kochia scoparia), ragweed (common ragweed, Ambrosia elatior), Italian ryegrass (Lolium multiflorum), large (Lg) crabgrass (Digitaria sanguinalis), giant foxtail (Setaria faberii), momingglory (Ipomoea spp.), pigweed (Amaranthus retroflexus), velvetleaf (Abutilon theophrasti), wheat (Triticum aestivum), and corn (Zea mays) were planted into a blend of loam soil and sand and treated preemergence with a directed soil spray using test chemicals formulated in a non-phytotoxic solvent mixture which included a surfactant. At the same time, plants selected from these crop and weed species and also blackgrass (Alopecurus myosuroides), and galium (catchweed bedstraw, Galium aparine) were planted in pots containing the same blend of loam soil and sand and treated with postemergence applications of test chemicals formulated in the same manner. Plants ranged in height from 2 to 10 cm and were in the one- to two-leaf stage for the postemergence treatment. Treated plants and untreated controls were maintained in a greenhouse for approximately 10 days, after which time all treated plants were compared to untreated controls and visually evaluated for injury. Plant response ratings, summarized in Table B, are based on a 0 to 100 scale where 0 is no effect and 100 is complete control. A dash (-) response means no test result.

corn (Zea mays) = experiment: Test B pre-/postemergence plant response; conditions: 0 to 100 scale (0 no effect, 100 complete control)
Source text: as §1

[2] = test system: giant foxtail (Setaria faberii); experiment: Test B pre-/postemergence plant response
Source text: as §1

[3] = test system: large (Lg) crabgrass (Digitaria sanguinalis); experiment: Test B pre-/postemergence plant response; conditions: 1000 g ai/ha, 0 to 100 scale (0 no effect, 100 complete control)
Source text: as §1

[4] = test system: morningglory (Ipomoea spp.); experiment: Test B pre-/postemergence plant response; conditions: 1000 g ai/ha, 0 to 100 scale (0 no effect, 100 complete control)
Source text: as §1

[5] = test system: pigweed (Amaranthus retroflexus); experiment: Test B pre-/postemergence plant response
Source text: as §1

[6] = test system: velvetleaf (Abutilon theophrasti); experiment: Test B pre-/postemergence plant response; conditions: 1000 g ai/ha, 0 to 100 scale (0 no effect, 100 complete control)
Source text: as §1

[7] = test system: wheat (Triticum aestivum); experiment: Test B pre-/postemergence plant response; conditions: 0 to 100 scale (0 no effect, 100 complete control)
Source text: as §1

[8] = test system: Italian ryegrass (Lolium multiflorum); experiment: Test B pre-/postemergence plant response; conditions: 500 g ai/ha
Source text: as §1

kochia (Kochia scoparia) = experiment: Test B pre-/postemergence plant response; conditions: 500 g ai/ha
Source text: as §1

[9] = test system: ragweed (common ragweed, Ambrosia elatior); experiment: Test B pre-/postemergence plant response; conditions: 500 g ai/ha
Source text: as §1

[10] = test system: blackgrass (Alopecurus myosuroides); experiment: Test B postemergence plant response; conditions: Postemergence, 500 g ai/ha; 0 to 100 scale (0 no effect, 100 complete control)
Source text: (§2) At the same time, plants selected from these crop and weed species and also blackgrass (Alopecurus myosuroides), and galium (catchweed bedstraw, Galium aparine) were planted in pots containing the same blend of loam soil and sand and treated with postemergence applications of test chemicals formulated in the same manner. Plants ranged in height from 2 to 10 cm and were in the one- to two-leaf stage for the postemergence treatment. Treated plants and untreated controls were maintained in a greenhouse for approximately 10 days, after which time all treated plants were compared to untreated controls and visually evaluated for injury. Plant response ratings, summarized in Table B, are based on a 0 to 100 scale where 0 is no effect and 100 is complete control. A dash (-) response means no test result.

[11] = test system: galium (catchweed bedstraw, Galium aparine); experiment: Test B postemergence plant response; conditions: Postemergence, 500 g ai/ha; 0 to 100 scale (0 no effect, 100 complete control)
Source text: as §2

[12] = Postemergence, 1000 g ai/ha, 0 to 100 scale (0 no effect, 100 complete control)
[13] = Preemergence, 1000 g ai/ha, 0 to 100 scale (0 no effect, 100 complete control)
[14] = Postemergence, 0 to 100 scale (0 no effect, 100 complete control)
[15] = Preemergence, 0 to 100 scale where 0 is no effect and 100 is complete control
[16] = Postemergence, 500 g ai/ha, 0 to 100 scale (0 no effect, 100 complete control)
[17] = Preemergence, 500 g ai/ha, 0 to 100 scale where 0 is no effect and 100 is complete control

| SMILES | Plant response rating, Barnyardgrass [1, 12] | Plant response rating, Barnyardgrass [1, 13] | Plant response rating, Corn (corn (Zea mays); Postemergence, 1000 g ai/ha) | Plant response rating, Corn (corn (Zea mays); Preemergence, 1000 g ai/ha) | Plant response rating, Foxtail, Giant [2, 12] | Plant response rating, Foxtail, Giant [2, 13] | Plant response rating, Crabgrass, Large ([3]; Postemergence) | Plant response rating, Crabgrass, Large ([3]; Preemergence) | Plant response rating, Morningglory ([4]; Postemergence) | Plant response rating, Morningglory ([4]; Preemergence) | Plant response rating, Pigweed [5, 12] | Plant response rating, Pigweed [5, 13] | Plant response rating, Velvetleaf ([6]; Postemergence) | Plant response rating, Velvetleaf ([6]; Preemergence) | Plant response rating, Wheat ([7]; Postemergence, 1000 g ai/ha) | Plant response rating, Wheat ([7]; Preemergence, 1000 g ai/ha) | further results |
| --- | --- | --- | --- | --- | --- | --- | --- | --- | --- | --- | --- | --- | --- | --- | --- | --- | --- |
| CN(C)c1ccc(-c2ccccc2Oc2ncc(Cl)cn2)cn1 [Compound 2] | 0 | 0 | 0 | 0 | 0 | 10 | 0 | 10 | 40 | 0 | 70 | 100 | 50 | 20 | 0 | 0 |  |
| Clc1cnc(Oc2ccccc2-c2ncc(Cl)cn2)nc1 [Compound 3] | 50 | 60 | 10 | 0 | 20 | 70 | 10 | 40 | 60 | 0 | 70 | 50 | 100 | 90 | 10 | 0 |  |
| Brc1cnc(Oc2ccccc2-c2nnco2)nc1 [Compound 5] | 20 | 0 | 0 | 0 | 0 | 0 | 0 | 0 | 20 | 0 | 70 | 90 | 30 | 20 | 0 | 0 |  |
| Clc1cnc(Oc2ccccc2-c2nnco2)nc1 [Compound 6] | 0 | 0 | 0 | 0 | 0 | 0 | 20 | 0 | 20 | 0 | 70 | 70 | 30 | 20 | 0 | 0 |  |
| ON=Cc1cc(-c2ccccc2Oc2ncc(Cl)cn2)no1 [Compound 37] |  |  |  |  |  |  |  |  |  |  |  |  |  |  |  |  | Plant response rating, Ryegrass, Italian [8, 14]: 0; Plant response rating, Ryegrass, Italian [8, 15]: 0; Plant response rating, Barnyardgrass [1, 16]: 0; Plant response rating, Barnyardgrass [1, 17]: 0; Plant response rating, Corn (corn (Zea mays); Postemergence, 500 g ai/ha): 0; Plant response rating, Foxtail, Giant [2, 16]: 10; Plant response rating, Foxtail, Giant [2, 17]: 0; Plant response rating, Kochia (kochia (Kochia scoparia); [14]): 0; Plant response rating, Kochia (kochia (Kochia scoparia); [15]): 0; Plant response rating, Pigweed [5, 16]: 20; Plant response rating, Pigweed [5, 17]: 40; Plant response rating, Ragweed [9, 14]: 0; Plant response rating, Ragweed [9, 15]: 0; Plant response rating, Wheat ([7]; Postemergence, 500 g ai/ha): 0; Plant response rating, Blackgrass [10]: 0; Plant response rating, Galium [11]: 0 |
